From article PMC7206685, “Interactions between host biogenic amines and sand fly salivary yellow-related proteins” (Parasites & Vectors, 2020)
pKd: −log10 of the molar value.

Target: T1, PagSP04 (Phlebotomus argentipes, UniProt Q0ZSU5)
T1 construct: secreted recombinant protein from HEK293S GnTI- cells (pTW5sec); IMAC and size exclusion
T1 sequence (Q0ZSU5 19-398): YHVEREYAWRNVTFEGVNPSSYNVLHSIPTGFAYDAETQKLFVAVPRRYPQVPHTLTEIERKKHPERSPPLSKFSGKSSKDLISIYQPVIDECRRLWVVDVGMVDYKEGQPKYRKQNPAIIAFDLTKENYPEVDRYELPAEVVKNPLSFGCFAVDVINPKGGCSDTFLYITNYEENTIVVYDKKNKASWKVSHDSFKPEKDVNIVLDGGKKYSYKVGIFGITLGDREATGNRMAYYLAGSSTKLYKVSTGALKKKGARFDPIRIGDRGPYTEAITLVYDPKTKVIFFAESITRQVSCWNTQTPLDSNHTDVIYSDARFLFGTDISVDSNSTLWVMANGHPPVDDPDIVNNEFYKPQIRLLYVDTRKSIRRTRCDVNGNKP
Assay: microscale thermophoresis
Assay type: binding
Source text: microscale thermophoresis on PagSP04

SMILES	pKd
NCCc1c[nH]cn1 [Histamine]	5.03
NCCc1c[nH]c2ccc(O)cc12 [Serotonin]	7.06
